Target: GCN2 (Homo sapiens, UniProt Q9P2K8)
Assay: GCN2 enzymatic endpoint assay: phosphorylation of GFP-eIF2α measured by TR-FRET (Lanthascreen)
Type: biochemical
Details: GCN2 biochemical IC50; 4 nM GCN2, 2 μM ATP, 80 nM GFP-eIF2α, 90 min RT; read-out: GCN2 activity
Procedure, shortened: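 Kinase activity is measured as phosphorylation of GFP-labelled eIF2α (80 nM) with ATP at 2 μM. Incubation runs 90 minutes at room temperature before EDTA quench and terbium-antibody detection.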

Sequence of GCN2 (Q9P2K8 whole entry): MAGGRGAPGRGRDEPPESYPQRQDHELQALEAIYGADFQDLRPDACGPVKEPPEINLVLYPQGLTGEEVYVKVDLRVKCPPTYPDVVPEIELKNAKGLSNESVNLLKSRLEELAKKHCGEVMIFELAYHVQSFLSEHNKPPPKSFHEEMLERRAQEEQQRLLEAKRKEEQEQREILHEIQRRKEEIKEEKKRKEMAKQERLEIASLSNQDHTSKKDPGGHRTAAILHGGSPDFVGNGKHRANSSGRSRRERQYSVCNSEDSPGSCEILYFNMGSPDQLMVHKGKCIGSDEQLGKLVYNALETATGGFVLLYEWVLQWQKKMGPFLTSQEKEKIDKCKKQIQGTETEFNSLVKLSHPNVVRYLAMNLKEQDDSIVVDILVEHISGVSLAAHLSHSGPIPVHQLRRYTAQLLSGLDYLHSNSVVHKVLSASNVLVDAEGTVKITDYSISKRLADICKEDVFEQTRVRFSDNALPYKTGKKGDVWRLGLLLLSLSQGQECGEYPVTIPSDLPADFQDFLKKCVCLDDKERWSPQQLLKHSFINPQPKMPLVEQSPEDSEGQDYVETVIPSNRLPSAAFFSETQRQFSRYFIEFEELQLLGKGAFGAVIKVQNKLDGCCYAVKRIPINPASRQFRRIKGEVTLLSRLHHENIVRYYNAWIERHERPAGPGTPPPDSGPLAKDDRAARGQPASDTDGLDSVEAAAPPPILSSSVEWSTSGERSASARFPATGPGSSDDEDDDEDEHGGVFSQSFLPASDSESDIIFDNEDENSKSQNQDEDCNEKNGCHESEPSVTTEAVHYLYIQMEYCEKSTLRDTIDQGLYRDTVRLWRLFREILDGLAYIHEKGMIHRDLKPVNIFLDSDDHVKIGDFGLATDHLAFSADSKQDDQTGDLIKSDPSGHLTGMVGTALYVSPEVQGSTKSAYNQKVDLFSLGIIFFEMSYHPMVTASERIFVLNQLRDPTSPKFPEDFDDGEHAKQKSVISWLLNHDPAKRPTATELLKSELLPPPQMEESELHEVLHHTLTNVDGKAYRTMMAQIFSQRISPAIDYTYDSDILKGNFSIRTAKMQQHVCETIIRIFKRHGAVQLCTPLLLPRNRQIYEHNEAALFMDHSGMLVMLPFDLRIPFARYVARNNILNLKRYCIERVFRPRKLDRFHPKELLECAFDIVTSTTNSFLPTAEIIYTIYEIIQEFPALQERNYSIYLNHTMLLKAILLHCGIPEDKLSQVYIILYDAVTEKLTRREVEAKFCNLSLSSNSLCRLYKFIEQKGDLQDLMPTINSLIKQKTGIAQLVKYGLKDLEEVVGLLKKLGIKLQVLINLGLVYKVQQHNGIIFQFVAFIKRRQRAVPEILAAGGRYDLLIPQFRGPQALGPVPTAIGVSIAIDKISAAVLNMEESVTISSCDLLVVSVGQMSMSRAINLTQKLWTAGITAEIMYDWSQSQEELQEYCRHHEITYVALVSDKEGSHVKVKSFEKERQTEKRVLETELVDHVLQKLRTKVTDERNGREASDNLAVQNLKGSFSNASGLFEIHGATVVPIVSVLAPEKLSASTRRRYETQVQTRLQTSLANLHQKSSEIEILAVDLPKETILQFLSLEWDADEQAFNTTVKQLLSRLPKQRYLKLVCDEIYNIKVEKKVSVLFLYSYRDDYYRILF

| SMILES | IC50 [nM] |
| --- | --- |
| CNC(=O)C1(C)CC[C@@H](Nc2ncc3c(Br)nn(-c4cc(Cl)cc(CO)c4)c3n2)C1 (mixture of isomers) [Example 17, (3R)-3-((3-bromo-1-(3-chloro-5-(hydroxymethyl)phenyl)-1H-pyrazolo[3,4-d]pyrimidin-6-yl)amino)-N,1-dimethylcyclopentane-1-carboxamide] | 25 to 200 |

Same assay, conditions: tested as described in Example 77; compound and/or hydrochloride, dihydrochloride or trifluoroacetic acid salt; read-out: IC 50 Activity

| SMILES | IC50 [nM] |
| --- | --- |
| N#Cc1cc(-n2nc(Br)c3cnc(N[C@@H]4CC[C@@H](C(=O)NC[C@@H]5COCCN5)C4)nc32)cc2cccnc12 [(1R,3R)-3-((3-bromo-1-(8-cyanoquinolin-6-yl)-1H-pyrazolo[3,4-d]pyrimidin-6-yl)amino)-N-(((R)-morpholin-3-yl)methyl)cyclopentane-1-carboxamide] | < 25 |
| O=S(=O)([C@@H]1CC[C@@H](Nc2ncc3c(Br)nn(-c4ccc5ncccc5c4)c3n2)C1)N1CCOCC1 [3-bromo-N-((1R,3R)-3-(morpholinosulfonyl)cyclopentyl)-1-(quinolin-6-yl)-1H-pyrazolo [3,4-d]pyrimidin-6-amine] | 200 to 500 |
| Cc1nnc(-c2ccc(-n3nc(Br)c4cnc(N[C@@H]5CC[C@@](C)(C(=O)NCC(F)F)C5)nc43)cc2CCC#N)s1 [(1R,3R)-3-[[3-bromo-1-[3-(2-cyanoethyl)-4-(5-methyl-1,3,4-thiadiazol-2-yl)phenyl]pyrazolo[3,4-d]pyrimidin-6-yl]amino]-N-(2,2-difluoroethyl)-1-methyl-cyclopentanecarboxamide] | 25 to 200 |
| CNC(=O)[C@]1(C)CC[C@@H](Nc2ncc3c(Br)nn(-c4ccc5c(c4)OC(C)C(=O)N5C)c3n2)C1 (stereo partly drawn) [(1R,3R)-3-[[3-bromo-1-(2,4-dimethyl-3-oxo-1,4-benzoxazin-7-yl)pyrazolo [3,4-d]pyrimidin-6-yl]amino]-N,1-dimethyl-cyclopentanecarboxamide] | 25 to 200 |
| O=C([C@@H]1CC[C@@H](Nc2ncc3c(Br)nn(-c4ccc5ncccc5c4)c3n2)C1)N1C2CCC1COC2 [(3-oxa-8-azabicyclo[3.2.1]octan-8-yl)((1R,3R)-3-((3-bromo-1-(quinolin-6-yl)-1H-pyrazolo [3,4-d]pyrimidin-6-yl)amino)cyclopentyl) methanone] | 25 to 200 |
| CNC(=O)[C@]1(C)CC[C@@H](Nc2ncc3c(Br)nn(-c4ccc(-c5nnc(C)s5)c(OCC#N)c4)c3n2)C1 [(1R,3R)-3-[[3-bromo-1-[3-(cyanomethoxy)-4-(5-methyl-1,3,4-thiadiazol-2-yl)phenyl]pyrazolo[3,4-d]pyrimidin-6-yl]amino]-N,1-dimethyl-cyclopentanecarboxamide] | 25 to 200 |
| CNC(=O)[C@]1(C)CC[C@@H](Nc2ncc3c(Br)nn(-c4ccc5c(c4)C(=O)C(=O)N5)c3n2)C1 [(1R,3R)-3-[[3-bromo-1-(2,3-dioxo-indolin-5-yl)pyrazolo[3,4-d]pyrimidin-6-yl]amino]-N,1-dimethyl-cyclo-pentanecarboxamide] | 25 to 200 |
| CNC(=O)[C@]1(C)CC[C@@H](Nc2ncc3c(Br)nn(-c4ccc(-c5nnc(C(C)(C)O)s5)cc4)c3n2)C1 | 25 to 200 |
| C[C@]1(NC(=O)[C@@H]2CC[C@@H](Nc3ncc4c(Br)nn(-c5ccc6ncccc6c5)c4n3)C2)C[C@H](O)C1 | 25 to 200 |
| COCCNC(=O)[C@@H]1CC[C@@H](Nc2ncc3c(Br)nn(-c4cc(F)c5ncccc5c4)c3n2)C1 [(1R,3R)-3-((3-bromo-1-(8-fluoroquinolin-6-yl)-1H-pyrazolo[3,4-d]pyrimidin-6-yl)amino)-N-(2-methoxyethyl)cyclopentane-1-carboxamide] | 25 to 200 |
| CNC(=O)[C@]1(C)CC[C@@H](Nc2ncc3c(Br)nn(-c4ccc5nc(N6CCN(C)CC6)ncc5c4)c3n2)C1 [(1R,3R)-3-[[3-bromo-1-[2-(4-methylpiperazin-1-yl)quinazolin-6-yl]pyrazolo[3,4-d]pyrimidin-6-yl]amino]-N,1-dimethyl-cyclo-pentanecarboxamide; 2,2,2-trifluoroacetic acid] | 25 to 200 |
| CNC(=O)[C@]1(C)CC[C@@H](Nc2ncc3c(Br)nn(-c4cc(OC)c5c(c4)OCC(=O)N5C)c3n2)C1 [(1R,3R)-3-[[3-bromo-1-(5-methoxy-4-methyl-3-oxo-1,4-benzoxazin-7-yl)pyrazolo[3,4-d]pyrimidin-6-yl]amino]-N,1-dimethyl-cyclopentanecarboxamide] | < 25 |
| O=C([C@@H]1CC[C@@H](Nc2ncc3c(Br)nn(-c4ccc5ncccc5c4)c3n2)C1)N1CCC2(CNC2)C1 [((1R,3R)-3-((3-bromo-1-(quinolin-6-yl)-1H-pyrazolo[3,4-d]pyrimidin-6-yl)amino)cyclo-pentyl)(2,6-diazaspiro[3.4]octan-6-yl) methanone] | < 25 |
| CNC(=O)[C@]1(C)CC[C@@H](Nc2ncc3c(Br)nn(-c4ccc(-c5nnc(C)s5)nc4)c3n2)C1 | 25 to 200 |
| CNC(=O)[C@]1(C)CC[C@@H](Nc2ncc3c(Br)nn(-c4ccc5c(c4)c(=O)n(C)c(=O)n5C)c3n2)C1 | < 25 |
| CNC(=O)[C@]1(C)CC[C@@H](Nc2ncc3c(Br)nn(-c4ccc5c(c4)CN(S(=O)(=O)C4COC4)C5)c3n2)C1 [(1R,3R)-3-[[3-bromo-1-[2-(oxetan-3-ylsulfonyl)isoindolin-5-yl]pyrazolo[3,4-d]pyrimidin-6-yl]amino]-N,1-dimethyl-cyclopentanecarboxamide] | 25 to 200 |

| SMILES | IC50 [nM] |
| --- | --- |
| CNC(=O)[C@]1(C)CC[C@@H](Nc2ncc3c(Br)nn(-c4ccc(-c5ncco5)c([C@H](C)C#N)c4)c3n2)C1 [(1R,3R)-3-[[3-bromo-1-[3-[(1S)-1-cyanoethyl]-4-oxazol-2-yl-phenyl]pyrazolo[3,4-d]pyrimidin-6-yl]amino]-N,1-dimethyl-cyclopentane-carboxamide] | 25 to 200 |
| CNC(=O)[C@]1(C)CC[C@@H](Nc2ncc3c(Br)nn(-c4ccc(-c5ncco5)c(C5CCNCC5)c4)c3n2)C1 [(1R,3R)-3-[[3-bromo-1-[4-oxazol-2-yl-3-(4-piperidyl)phenyl]pyrazolo[3,4-d]pyrimidin-6-yl]amino]-N,1-dimethyl-cyclopentanecarboxamide] | 25 to 200 |
| CNC(=O)[C@]1(CO)CC[C@@H](Nc2ncc3c(Br)nn(-c4ccc(-c5nnc(C)s5)cc4)c3n2)C1 [(1R,3R)-3-[[3-bromo-1-[4-(5-methyl-1,3,4-thiadiazol-2-yl)phenyl]pyrazolo [3,4-d]pyrimidin-6-yl]amino]-1-(hydroxymethyl)-N-methyl-cyclo-pentanecarboxamide] | 25 to 200 |
| COCCNC(=O)[C@@H]1CC[C@@H](Nc2ncc3c(Br)nn(-c4ccc5nc(C)ccc5c4)c3n2)C1 [(1R,3R)-3-((3-bromo-1-(2-methylquinolin-6-yl)-1H-pyrazolo[3,4-d]pyrimidin-6-yl)amino)-N-(2-methoxyethyl)cyclopentane-1-carboxamide] | 200 to 500 |
| CC(=O)OCC(=O)N1CCN(C(=O)[C@@H]2CC[C@@H](Nc3ncc4c(Br)nn(-c5cc(C#N)c6ncccc6c5)c4n3)C2)CC1 [2-(4-((1R,3R)-3-((3-bromo-1-(8-cyanoquinolin-6-yl)-1H-pyrazolo[3,4-d]pyrimidin-6-yl)amino)cyclopentane-1-carbonyl)piperazin-1-yl)-2-oxoethyl acetate] | < 25 |
| O=C([C@@H]1CC[C@@H](Nc2ncc3c(Br)nn(-c4cc(F)c5ncccc5c4)c3n2)C1)n1ccc(C(F)(F)F)n1 [((1R,3R)-3-((3-bromo-1-(8-fluoroquinolin-6-yl)-1H-pyrazolo[3,4-d]pyrimidin-6-yl)amino)cyclopentyl)(3-(trifluoromethyl)-1H-pyrazol-1-yl)methanone] | 25 to 200 |
| CC1(C(=O)N2CNC(=O)C2)CC[C@@H](Nc2ncc3c(Br)nn(-c4cc(F)c5ncccc5c4)c3n2)C1 (stereo partly drawn) [1-[(3R)-3-[[3-bromo-1-(8-fluoro-6-quinolyl)pyrazolo[3,4-d]pyrimidin-6-yl]amino]-1-methyl-cyclopentanecarbonyl]imidazolidin-4-one] | < 25 |
| C[C@H]1C(=O)N(C)CCN1C(=O)[C@@H]1CC[C@@H](Nc2ncc3c(Br)nn(-c4cc(C#N)c5ncccc5c4)c3n2)C1 [6-(3-bromo-6-(((1R,3R)-3-((S)-2,4-dimethyl-3-oxopiperazine-1-carbonyl)cyclopentyl)amino)-1H-pyrazolo[3,4-d]pyrimidin-1-yl) quinoline-8-carbonitrile] | < 25 |
| CNC(=O)[C@]1(C)CC[C@@H](Nc2ncc3c(Br)nn(-c4ccc5ncn(CCCN)c(=O)c5c4)c3n2)C1 | 25 to 200 |
| CC(C)NC(=O)[C@@H]1CC[C@@H](Nc2ncc3c(Br)nn(-c4cc(C#N)c5ncccc5c4)c3n2)C1 [(1R,3R)-3-((3-bromo-1-(8-cyanoquinolin-6-yl)-1H-pyrazolo[3,4-d]pyrimidin-6-yl)amino)-N-isopropylcyclopentane-1-carboxamide] | 25 to 200 |
| CNC(=O)[C@]1(C)CC[C@@H](Nc2ncc3c(Br)nn(-c4ccc(-c5ncco5)c(OCC5CNC5)c4)c3n2)C1 [(1R,3R)-3-[[1-[3-(azetidin-3-ylmethoxy)-4-oxazol-2-yl-phenyl]-3-bromo-pyrazolo [3,4-d]pyrimidin-6-yl]amino]-N,1-dimethyl-cyclopentanecarboxamide] | 25 to 200 |
| C[C@@]1(C(=O)N2CCN3C(=O)CC[C@@H]3C2)CC[C@@H](Nc2ncc3c(Br)nn(-c4cc(F)c5ncccc5c4)c3n2)C1 | 25 to 200 |
| CN(CCNC(=O)[C@@H]1CC[C@@H](Nc2ncc3c(Br)nn(-c4ccc5ncccc5c4)c3n2)C1)CC(=O)O [N-(2-((1R,3R)-3-((3-bromo-1-(quinolin-6-yl)-1H-pyrazolo[3,4-d]pyrimidin-6-yl)amino)cyclopentane-1-carboxamido)ethyl)-N-methylglycine] | 25 to 200 |
| CNC(=O)[C@]1(C)CC[C@@H](Nc2ncc3c(Br)nn(-c4cc(F)c5nc(C(C)(C)N)ccc5c4)c3n2)C1 [(1R,3R)-3-[[1-[2-(1-amino-1-methyl-ethyl)-8-fluoro-6-quinolyl]-3-bromo-pyrazolo[3,4-d]pyrimidin-6-yl]amino]-N,1-dimethyl-cyclopentanecarboxamide] | 25 to 200 |
| CNS(=O)(=O)[C@H]1CC[C@@H](Nc2ncc3c(Br)nn(-c4ccc5ncccc5c4)c3n2)C1 [(1S,3R)-3-((3-bromo-1-(quinolin-6-yl)-1H-pyrazolo[3,4-d]pyrimidin-6-yl)amino)-N-methylcyclopentane-1-sulfonamide] | 500 to 1000 |

From patent US11046699B2, “Pyrazolo-pyrimidin-amino-cycloalkyl compounds and their therapeutic uses” (RAPT THERAPEUTICS, INC., priority 2018, dated 2021)
